# Reference: US6291694A, “Process and intermediates useful to produce vitamin D analogs” (Hoffman-La Roche Inc., priority 2000, dated 2001)
# Experiment: pKa of alcohol additive in water
# Assay type: physicochemical
row,Structure (SMILES),pKa in water
1,CC(O)(C(F)(F)F)C(F)(F)F [formula 15a],9.51
2,"OC(c1cccc(C(O)(C(F)(F)F)C(F)(F)F)c1)(C(F)(F)F)C(F)(F)F [Formula 16, 1,3-bis(1,1,1,3,3,3, -hexafluoro-2-hydroxypropyl)benzene]",8.48
3,"OC(C(F)(F)F)(C(F)(F)F)C(F)(F)F [formula 15d, perfluoro-t-butanol]",5.18
4,"OC(c1ccccc1)(C(F)(F)F)C(F)(F)F [formula 15c, 1,1,1,3,3,3-hexafluoro-2-phenyl-2-propanol]",8.52
5,OC(C(F)(F)F)C(F)(F)F [formula 15b],9.13
